The record followed here is US8361968B2 (Takeda Pharmaceutical Company Limited, priority 2002, dated 2013).

Where two headings read alike, the source gives them in different places. Square brackets hold non-standard residues; d marks the D form. Peptide text beside a SMILES is read from it. Arg(Me) = CNC(=N)NCCC[C@H](N)C(=O)O; 4Pal = N[C@@H](Cc1ccncc1)C(=O)O; azaGly = NNC(=O)O

Data set [1] concerns the target T1, hOT7T175 (Homo sapiens, UniProt Q969F8, L364H). Nature of the data set: Intracellular Ca ion level-increasing activity using FLIPR in hOT7T175/CHO. The class given is cell-based. To be noted: relative, Metastin (1-54) = 1. More on the design: expressed in transfected cells; host or cells: CHO/dhfr- cells, obtained from ATCC.
Data set [2] deals with hOT7T175-expressed CHO cells. It is filed as cell-based. Here is the method:
Assay for Cell Growth Inhibition Activity in hOT7T175-Expressed Cho Cells hOT7T175-Expressed CHO cells (hereinafter hOT7T175) were cultured in DMEM supplemented with 10% dialyzed FBS (hereinafter 10% dFBS/DMEM), which was used for the following assay. The hOT7T175 was suspended in 10% dFBS/DMEM at 10,000 cells/ml. The cells were plated on a 96 well plate at 100 μL each/well (1,000 cells/well), followed by culturing overnight at 37° C. in a 5% CO2 incubator. On the following day, the medium was removed and 90 μL of 10% dFBS/DMEM supplemented with 0.5% BSA (hereinafter, 0.5% BSA/10% dFBS/DMEM) was added. […] After 10 μL of Cell Counting Kit-8 solution (Dojin Chemical Laboratory) was added to each well, incubation was performed at 37° C. in a 5% CO2 incubator for 4 hours and absorbance was measured at 450 nm.

A short description of another data set: in vitro. As to conditions: female, Balb/c, mouse, serum.
Data set [3] in a line: Stability of compound in blood (mouse serum, half life). To be noted: female, Balb/c.
Protocol: (§1) Blood was drawn from Balb/c mice (female) of 8 weeks old, settled at 37° C. for 30 minutes and centrifuged at 13000 rpm for 10 minutes to give the serum as the supernatant. The serum thus obtained was frozen-stored at −80° C.
(§2) The stability test was performed by addition of 5 nmol of Compound (5 μL of aqueous solution) to 45 μL of serum and then settlement of the mixture at 37° C. The settlement was made at 3 points of time, including 2, 10 and 30 minutes. The sample after the settlement was boiled for 3 minutes and cooled on an ice bath. After 200 μL of acetonitrile/water (3/1) was added to the sample, the mixture was ultrasonicated for 5 minutes and then centrifuged at 5000 rpm for 1 minute. After 150 μL of the supernatant was diluted with 250 μL of distilled water, insoluble matters were removed by filtration through a filter having a pore size of 0.45 μm and 200 μL of the filtrate was applied on HPLC (220 nm) to determine the peak area of Compound. A ratio of the peak area to the area when Compound was treated for 0 minute under the same conditions was calculated as a mean value in 4 respective runs to determine the residual ratio. Next, by taking the calculated residual ratio on the ordinate and the time on the abscissa, a graph was prepared and approximated by an exponential function.
(§3) The preparative HPLC used was the LC-VP series manufactured by Shimadzu Corporation and Wakosil-II 5C18 HG (4.6 mm×100 mm) manufactured by Wako Pure Chemical Industries, Ltd. was used as the column. Eluant A (0.1% TFA-containing water) and eluant B (0.1% TFA-containing acetonitrile) were used as eluants. Analysis was performed by linear density gradient elution (25 minutes) at a flow rate of 1.0 ml/min. using eluants A/B: 100/0-0/50.
In data set [4] the target is T1, hOT7T175. Put plainly: hOT7T175 receptor binding activity: binding inhibition of Cy-5-labeled metastin (40-54) on hOT7T175-expressed CHO cells. The arrangement: expressed in transfected cells; host or cells: CHO cells.
Setting [5] is: hOT7T175-expressed CHO cells, 3 days culture, Cell Counting Kit-8, read-out: IC50 (M), cell growth inhibition activity.

T1 sequence (Q969F8 whole entry L364H): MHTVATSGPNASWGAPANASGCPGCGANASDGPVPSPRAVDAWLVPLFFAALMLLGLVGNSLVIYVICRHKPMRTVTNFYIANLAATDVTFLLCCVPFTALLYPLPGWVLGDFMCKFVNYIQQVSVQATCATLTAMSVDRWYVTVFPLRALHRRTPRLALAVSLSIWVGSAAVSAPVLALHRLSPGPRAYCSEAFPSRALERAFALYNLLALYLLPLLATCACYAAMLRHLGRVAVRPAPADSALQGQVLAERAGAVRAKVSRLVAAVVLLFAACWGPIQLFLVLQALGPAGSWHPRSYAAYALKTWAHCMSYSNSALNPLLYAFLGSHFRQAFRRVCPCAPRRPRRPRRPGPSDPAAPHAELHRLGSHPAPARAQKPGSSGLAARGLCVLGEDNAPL
Protocol for in vitro: as §1, §2, §3

By IC50 is commonly meant the concentration needed to halve the response being measured. As to `CNC(=N)NCCC[C@H](NC(=O)[C@H](CC(C)C)NC(=O)NNC(=O)[C@H](Cc1ccccc1)NC(=O)[C@H](CO)NC(=O)[C@H](CC(N)=O)NC(=O)[C@H](Cc1ccncc1)NC(=O)[C@@H](CC(N)=O)NC(=O)[C@H](N)Cc1ccc(O)cc1)C(=O)N[C@@H](Cc1ccccc1)C(N)=O` [Compound No. 303, D-Tyr-D-Asn-Pya(4)-Asn-Ser-Phe-AzaGly-Leu-Arg(Me)-Phe-NH2] (H-[dY][dN][4Pal]NSF[azaGly]L[Arg(Me)]F-NH2), the “Specific Activity (intracellular Ca ion level-increasing activity)” value at hOT7T175 [1] stood at 5. In data set [2] (setting [5]), the IC50 was determined as 4.12e-08 M.

As a reminder, the half-life is the time needed for the level to fall by half in the phase considered. Low readings indicate fast loss, high ones slow loss. For `CNC(=N)NCCC[C@H](NC(=O)[C@H](CC(C)C)NC(=O)CNC(=O)[C@H](Cc1ccccc1)NC(=O)[C@H](CO)NC(=O)[C@H](CC(N)=O)NC(=O)[C@H](Cc1c[nH]c2ccccc12)NC(=O)[C@H](CC(N)=O)NC(=O)[C@H](N)Cc1ccc(O)cc1)C(=O)N[C@@H](Cc1ccccc1)C(N)=O` [Compound No. 141], the half-life at 100 µM in the data set “in vitro” amounted to 8.7 min. The “Specific Activity (intracellular Ca ion level-increasing activity)” value on hOT7T175 [1] came out at 10. Also, the IC50 in data set [2] was 8.7e-08 M.

`CNC(=N)NCCC[C@H](NC(=O)[C@H](CC(C)C)NC(=O)NNC(=O)[C@H](Cc1ccccc1)NC(=O)[C@H](CO)NC(=O)[C@H](CC(N)=O)NC(=O)[C@H](Cc1ccncc1)NC(=O)[C@H](CC(N)=O)NC(=O)[C@H](N)Cc1ccc(O)cc1)C(=O)N[C@@H](Cc1ccccc1)C(N)=O` [Compound No. 286, D-Tyr-Asn-Pya(4)-Asn-Ser-Phe-AzaGly-Leu-Arg(Me)-Phe-NH2] (H-[dY]N[4Pal]NSF[azaGly]L[Arg(Me)]F-NH2): the “Specific Activity (intracellular Ca ion level-increasing activity)” value on hOT7T175 [1] is given as 2. For the same compound, the IC50 in data set [2] (setting [5]) was 1.83e-08 M.

As for `CC(C)C[C@H](NC(=O)CNC(=O)[C@H](Cc1ccccc1)NC(=O)[C@H](CO)NC(=O)[C@H](CC(N)=O)NC(=O)[C@H](Cc1c[nH]c2ccccc12)NC(=O)[C@H](CC(N)=O)NC(=O)[C@H](N)Cc1ccc(O)cc1)C(=O)N[C@@H](CCCNC(=N)N)C(=O)N[C@@H](Cc1ccccc1)C(N)=O` [Compound No. 42], at hOT7T175 [1], the “Specific Activity (intracellular Ca ion level-increasing activity)” value worked out at 30. This compound displayed a half-life at 100 µM in data set [3] of 0.7 min.

For `CC(C)C[C@H](NC(=O)CNC(=O)[C@H](Cc1ccccc1)NC(=O)[C@H](CO)NC(=O)[C@H](CC(N)=O)NC(=O)[C@H](Cc1c[nH]c2ccccc12)NC(=O)[C@H](CC(N)=O)NC(=O)[C@@H](N)Cc1ccc(O)cc1)C(=O)N[C@@H](CCCNC(=N)N)C(=O)N[C@@H](Cc1ccccc1)C(N)=O` [Compound No. 3, reference compound], the “Specific Activity (intracellular Ca ion level-increasing activity)” value on hOT7T175 [1] was found to be 10. The compound also came in with a half-life at 100 µM in data set [3] of 0.6 min.

Consider `CC[C@H](C)[C@H](NC(=O)[C@H](CCC(N)=O)NC(=O)[C@H](CCCNC(=N)N)NC(=O)[C@H](CO)NC(=O)[C@H](Cc1c[nH]cn1)NC(=O)[C@@H]1CCCN1C(=O)[C@H](C)NC(=O)[C@H](CO)NC(=O)[C@H](CC(C)C)NC(=O)CNC(=O)[C@@H]1CCCN1C(=O)[C@H](CCC(N)=O)NC(=O)[C@H](CCC(N)=O)NC(=O)[C@H](CCCNC(=N)N)NC(=O)[C@H](CO)NC(=O)CNC(=O)[C@H](CO)NC(=O)[C@H](CO)NC(=O)[C@H](CCC(=O)O)NC(=O)[C@@H]1CCCN1C(=O)[C@@H]1CCCN1C(=O)[C@@H]1CCCN1C(=O)[C@H](CO)NC(=O)[C@H](CC(C)C)NC(=O)[C@H](CO)NC(=O)[C@@H](NC(=O)CN)[C@@H](C)O)C(=O)N1CCC[C@H]1C(=O)N[C@@H](C)C(=O)N1CCC[C@H]1C(=O)N[C@@H](CCC(N)=O)C(=O)NCC(=O)N[C@@H](C)C(=O)N[C@H](C(=O)N[C@@H](CC(C)C)C(=O)N[C@H](C(=O)N[C@@H](CCC(N)=O)C(=O)N[C@@H](CCCNC(=N)N)C(=O)N[C@@H](CCC(=O)O)C(=O)N[C@@H](CCCCN)C(=O)N[C@@H](CC(=O)O)C(=O)N[C@@H](CC(C)C)C(=O)N1CCC[C@H]1C(=O)N[C@@H](CC(N)=O)C(=O)N[C@@H](Cc1ccc(O)cc1)C(=O)N[C@@H](CC(N)=O)C(=O)N[C@@H](Cc1c[nH]c2ccccc12)C(=O)N[C@@H](CC(N)=O)C(=O)N[C@@H](CO)C(=O)N[C@@H](Cc1ccccc1)C(=O)NCC(=O)N[C@@H](CC(C)C)C(=O)N[C@@H](CCCNC(=N)N)C(=O)N[C@@H](Cc1ccccc1)C(N)=O)C(C)C)C(C)C` [1-54], for which half-maximal inhibition in data set [2] (IC50) required 2.12e-07 M.

In the data set “in vitro”, `CNC(=N)NCCC[C@H](NC(=O)[C@H](CC(C)C)NC(=O)NNC(=O)[C@H](Cc1ccccc1)NC(=O)[C@H](CO)NC(=O)[C@H](CC(N)=O)NC(=O)[C@H](Cc1c[nH]c2ccccc12)NC(=O)[C@H](CC(N)=O)NC(=O)[C@H](N)Cc1ccc(O)cc1)C(=O)N[C@@H](Cc1ccccc1)C(N)=O` [Compound No. 232, D-Tyr-Asn-Trp-Asn-Ser-Phe-AzaGly-Leu-Arg(Me)-Phe-NH2] yielded a half-life at 100 µM of 28.2 min. In addition, the IC50 on hOT7T175 [4] turned out to be 49 nM; in data set [2], 9.67e-09 M. In addition, the “Specific Activity (intracellular Ca ion level-increasing activity)” value at hOT7T175 [1] was determined as 3.

Turning to `CNC(=N)NCCC[C@H](NC(=O)[C@H](CC(C)C)NC(=O)CC(=O)N[C@H](Cc1ccccc1)NC(=O)[C@H](CO)NC(=O)[C@H](CC(N)=O)NC(=O)[C@H](Cc1c[nH]c2ccccc12)NC(=O)[C@H](CC(N)=O)NC(=O)[C@H](N)Cc1ccc(O)cc1)C(=O)N[C@@H](Cc1ccccc1)C(N)=O` [Compound No. 319, D-Tyr-Asn-Trp-Asn-Ser-PheΨ(NHCO)Gly-Leu-Arg(Me)-Phe-NH2], the “Specific Activity (intracellular Ca ion level-increasing activity)” value on hOT7T175 [1] worked out at 3. In data set [3], this compound gave a half-life at 100 µM of 33 min.
